The source of these data is patent US20210163443A1, “Febrifugine Derivatives” (BRISTOL-MYERS SQUIBB COMPANY, priority 2019, published 2021).

The term IC50 denotes the concentration that gives 50% inhibition.

Where two headings read alike, the source gives them in different places. Where only a bound is given, the exact number is not on record here.

For data set [1], the target named is T1, human ProRS (prolyl tRNA synthetase moiety of glutamyl prolyl tRNA synthetase, EPRS) (Homo sapiens, UniProt P07814).
T1 construct: The prolyl tRNA synthetase moiety (ProRS) in the cDNA of glutamyl prolyl tRNA synthetase was subcloned; 6xHis (N, cleaved yes); made in house; host or cells: E. coli BL21 (DE3)
T1 sequence (P07814 1007-1512 limits assumed): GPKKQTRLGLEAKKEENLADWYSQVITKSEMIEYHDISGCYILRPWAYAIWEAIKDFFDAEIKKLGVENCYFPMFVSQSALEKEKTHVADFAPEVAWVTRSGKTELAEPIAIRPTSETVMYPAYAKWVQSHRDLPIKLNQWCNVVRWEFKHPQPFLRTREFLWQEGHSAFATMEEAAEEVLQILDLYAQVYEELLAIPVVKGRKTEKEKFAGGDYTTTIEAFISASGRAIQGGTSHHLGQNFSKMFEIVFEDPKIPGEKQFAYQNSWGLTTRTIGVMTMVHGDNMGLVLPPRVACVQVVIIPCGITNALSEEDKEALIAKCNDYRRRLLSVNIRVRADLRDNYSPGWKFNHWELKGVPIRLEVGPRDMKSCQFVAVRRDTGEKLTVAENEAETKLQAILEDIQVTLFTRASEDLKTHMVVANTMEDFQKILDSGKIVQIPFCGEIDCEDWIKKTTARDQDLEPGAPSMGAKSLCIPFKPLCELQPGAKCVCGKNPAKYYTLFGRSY
The data set is described as follows: Assay for inhibitors of prolyl tRNA synthetase activity (ProRS assay, labeled proline incorporation). The format is biochemical. The method in brief: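 Biotinylated N-His-tagged human ProRS (20 nM) from E. coli, with Tris-Cl pH 7.5, 2 mM DTT, 5 mM ATP, MgCl2, bovine tRNA; compounds (10 μM to 0.5 nM) preincubated 15 min on ice. Started with proline (3.96 μM unlabeled, 1.04 μM labeled), 10 min at 37 °C, TCA-precipitated and scintillation-counted; IC50 from 4-parameter fit.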

For another data set, the system named is Rat hepatocytes. The data set is described as follows: GSH trapping assay in rat hepatocytes. Type of data set: in vitro ADME. Particulars: 30 μM, 24 hr incubation, LC-MS. How it is done:
Rat hepatocytes were isolated from male Sprague-Dawley rats (Vivo Biotech Ltd, HYD, India), weighing 230 to 280 g by the two step collagenase perfusion method (seglen, 1976; Berry M N and Friend D S.1969). Rat hepatocytes were cultured in Dulbecco's Modified Eagle's Medium (DMEM, Gibco®, USA) supplemented with 10^−6 M dexamethasone (Gibco®), 5% fetal bovine serum (Gibco®) and cocktail-A mix (CM3000, Gibco®) containing HEPES buffer (PH 7.4), GlutaMAX™, human recombinant insulin, penicillin and streptomycin. Initial cell viability assessed by Trypanblue stain 0.4% (Sigma, UK) and viability more than 80% were considered for culturing. Hepatocytes were seeded in 96 well type-I collagen coated plates (Gibco®) at 4×10^4 cells/well in 100 μL of the culture medium and incubated at 37° C. in 5% CO2 and 95% relative humidity (RH) for 4 hr of cell attachment.
After 4 hr incubation, rat hepatocytes were washed twice with pre-warmed (37° C.) DMEM incubation medium supplemented with 10^−7 M dexamethasone and cell maintenance cocktail-B (CM4000, Gibco®) solution to remove unattached cells. Post washing hepatocytes were treated with test and reference compounds in incubation medium at single concentration (30 μM) in duplicate and incubate further for 24 hr at 37° C. with 5% CO2 and 95% RH. The final concentration of DMSO in medium was 0.5%.
Post 24 hr incubation, hepatocyte samples were quenched with equal volumes of acetonitrile containing 0.1% formic acid followed by vortex mix, sonicate and centrifuge at 12000 rpm at room temperature for 5 min. Supernatant samples were analyzed for GSH adducts on a C18 reverse-phase column (Xbridge™ Shield, C18, 4.6×150 mm, 3.5 μm) with solvent A (10 mM ammonium formate and 0.1% formic acid/water) and solvent B (0.1% formic acid/acetonitrile).
The column was eluted with 5% B for 5 min and then with a linear gradient to 20% B over 10 min and it was maintained up to 15 min, then it was increased linearly to 40% B up to 27 min and then increase to 90% B up to 29 min, and then equilibrate back the column to 5% B up to 33 min at a flow rate of 0.6 ml/min. The column effluent was directed into the ESI source of a LTQ Velos Orbitrap mass spectrometer (Thermo Fisher Scientific, San Jose, Calif.). The ESI conditions were as follows: sheath gas flow rate, 40 arbitrary units; auxiliary gas, 30 arbitrary units; spray voltage, 4.5 kV; capillary temperature, 230° C.; capillary voltage, 30 V; and tube lens offset, 25 V. Data were acquired in positive ion mode using Xcalibur software (Thermo Fisher Scientific) with one full scan followed by two data-dependent scans of the most intense and the second most intense ions. During the data interpretation the characteristic fragments of neutral loss of glycine (75.0320 Da), pyroglutamic acid (129.0426 Da) and loss of neutral moiety GSH (307.0838 Da) and/or a specific fragment of (GSH+H)^+ (m/z 308.0911) were monitored. Finally the fragments ions with m/z e.g. 179.0485, 177.0328 and 162.0219 Da, which were derived from the glutathione moiety were used to report GSH positive results.

For data set [2] the following is noted: cited from earlier work.
For data set [3] the following is noted: in vivo; cited from earlier work.
Where [4] appears, read: human ProRS 20 nM, 10 min at 37° C., read-out: EPRS IC50.

Regarding `Cc1cc(Br)cc2c(=O)n(CC(=O)C[C@H]3NCCC[C@@H]3O)cnc12.Cl` [Example 3, 6-Bromo-3-{3-[(2R,3S)-3-hydroxypiperidin-2-yl]-2-oxopropyl}-8-methylquinazolin-4(3H)-one hydrochloride], in data set [1] (setting [4]), the IC50 came to 0.004 µM. For the same molecule, the GSH adduct formation entry with Rat hepatocytes is recorded as “Negative”.

In the case of `Cc1cc(Cl)cc2c(=O)n(C[C@@H](O)C[C@H]3NCCC[C@@H]3O)cnc12.Cl` [Example 30, 6-Chloro-3-{(S)-2-hydroxy-3-[(2R,3S)-3-hydroxypiperidin-2-yl]propyl}-8-methylquinazolin-4(3H)-one hydrochloride], in data set [1] (setting [4]), the IC50 worked out at 0.019 µM. In the data set on Rat hepatocytes, the GSH adduct formation result is recorded as “Negative”.

For the molecule `Cc1cc2ncn(C[C@@H](O)C[C@H]3NCCC[C@@H]3O)c(=O)c2cc1Cl.Cl` [Example 31, 6-Chloro-3-{(S)-2-hydroxy-3-[(2R,3S)-3-hydroxypiperidin-2-yl]propyl}-7-methylquinazolin-4(3H)-one hydrochloride], half-maximal inhibition in data set [1] (IC50) was put at 0.017 µM. Further, the GSH adduct formation result in the data set with Rat hepatocytes is recorded as “Negative (detected by mass only)”.

For the molecule `Cc1cc2ncn(C[C@@H](O)C[C@H]3NCCC[C@@H]3O)c(=O)c2cc1F.Cl` [Example 32, 6-Fluoro-3-{(S)-2-hydroxy-3-[(2R,3S)-3-hydroxypiperidin-2-yl]propyl}-7-methylquinazolin-4(3H)-one hydrochloride], the half-maximal inhibitory concentration (IC50) in data set [1] (setting [4]) worked out at 0.055 µM. Moreover, in the data set with Rat hepatocytes, the GSH adduct formation result was “Negative”.

On to `COc1cc2ncn(C[C@@H](O)C[C@H]3NCCC[C@@H]3O)c(=O)c2cc1Cl.Cl` [Example 33, 6-Chloro-3-{(S)-2-hydroxy-3-[(2R,3S)-3-hydroxypiperidin-2-yl]propyl}-7-methoxyquinazolin-4(3H)-one hydrochloride], for which the IC50 in data set [1] (setting [4]) turned out to be 0.116 µM. The GSH adduct formation entry in the data set on Rat hepatocytes was “Negative”.

As to `Cl.O=c1c2c(F)cccc2ncn1C[C@@H](O)C[C@H]1NCCC[C@@H]1O` [Example 40, 5-Fluoro-3-{(S)-2-hydroxy-3-[(2R,3S)-3-hydroxypiperidin-2-yl]propyl}quinazolin-4(3H)-one hydrochloride], in data set [1] (setting [4]), the IC50 worked out at 0.302 µM. Besides, the GSH adduct formation result in the data set with Rat hepatocytes is recorded as “Negative”.

In the case of `CCc1cc(Br)cc2c(=O)n(C[C@@H](O)C[C@H]3NCCC[C@@H]3O)cnc12.Cl` [Example 48, 6-Bromo-8-ethyl-3-{(S)-2-hydroxy-3-[(2R,3S)-3-hydroxypiperidin-2-yl]propyl}quinazolin-4(3H)-one hydrochloride], in data set [1] (setting [4]), the IC50 was found to be 0.083 µM. In the data set on Rat hepatocytes, the GSH adduct formation entry is reported as “Negative”.

On to `Cl.O=c1c2c(-c3cccc(F)c3)cccc2ncn1C[C@@H](O)C[C@H]1NCCC[C@@H]1O` [Example 49], for which the GSH adduct formation entry in the data set with Rat hepatocytes is given as “Negative”.

Regarding `Cc1cc(Cl)cc2c(=O)n(C[C@@H]3C[C@@H]4[C@@H](O)CCCN4CO3)cnc12` [Example 72, 6-Chloro-3-{[(3S,4aR,5S)-5-hydroxyhexahydro-1H,3H-pyrido[1,2-c][1,3]oxazin-3-yl]methyl}-8-methylquinazolin-4(3H)-one], in data set [1] (setting [4]), the IC50 is greater than 10 µM.

Consider `O=C(CC1NCCCC1O)Cn1cnc2cc(Br)c(Cl)cc2c1=O` (stereo not drawn) [Halofuginone, 7-bromo-6-chloro-3-[3-(3-hydroxy-2-piperidinyl)-2-oxopropyl]-4(3H)-quinazolinone], for which, in data set [2], the toxicity in humans result is “nausea, vomiting, and fatigue, and possibly bleeding complications”. In data set [3], the anti-fibrotic properties entry is “anti-fibrotic properties in vivo”.
